According to ChEMBL document CHEMBL5143638, “Natural aloe emodin-hybridized sulfonamide aminophosphates as novel potential membrane-perturbing and DNA-intercalating agents against Enterococcus faecalis” (Bioorg Med Chem Lett, 2022):
Values after ≈ are worked out from the molar mass of the structure shown. Active and inactive are the calls of the source. The calls are words filed in the database; no cut-off is given here.

Legend:
[1] = tested on: Klebsiella pneumoniae; assay: Antibacterial activity against Klebsiella pneumoniae assessed as inhibition of bacterial growth measured after 24 hrs by CLSI based broth microdilution method; format: functional
[2] = tested on: Enterococcus faecalis; assay: Antibacterial activity against Enterococcus faecalis assessed as inhibition of bacterial growth measured after 24 hrs by CLSI based broth microdilution method; format: functional
[3] = tested on: Staphylococcus aureus; assay: Antibacterial activity against methicillin-resistant Staphylococcus aureus N315 assessed as inhibition of bacterial growth measured after 24 hrs by CLSI based broth microdilution method; format: functional
[4] = tested on: Staphylococcus aureus; assay: Antibacterial activity against Staphylococcus aureus assessed as inhibition of bacterial growth measured after 24 hrs by CLSI based broth microdilution method; format: functional
[5] = tested on: Staphylococcus aureus; assay: Antibacterial activity against Staphylococcus aureus ATCC 25923 assessed as inhibition of bacterial growth measured after 24 hrs by CLSI based broth microdilution method; format: functional
[6] = tested on: Escherichia coli; assay: Antibacterial activity against Escherichia coli assessed as inhibition of bacterial growth measured after 24 hrs by CLSI based broth microdilution method; format: functional
[7] = tested on: Escherichia coli; assay: Antibacterial activity against Escherichia coli ATCC 25922 assessed as inhibition of bacterial growth measured after 24 hrs by CLSI based broth microdilution method; format: functional
[8] = tested on: Pseudomonas aeruginosa; assay: Antibacterial activity against Pseudomonas aeruginosa assessed as inhibition of bacterial growth measured after 24 hrs by CLSI based broth microdilution method; format: functional
[9] = tested on: Pseudomonas aeruginosa; assay: Antibacterial activity against Pseudomonas aeruginosa ATCC 27853 assessed as inhibition of bacterial growth measured after 24 hrs by CLSI based broth microdilution method; format: functional
[10] = tested on: Acinetobacter baumannii; assay: Antibacterial activity against Acinetobacter baumannii assessed as inhibition of bacterial growth measured after 24 hrs by CLSI based broth microdilution method; format: functional
[11] = tested on: Enterococcus faecalis; assay: Bactericidal activity against Enterococcus faecalis assessed as reduction in colony forming units at 4 times MIC measured after 1.5 to 6 hrs by time-kill kinetics assay; format: functional; conditions: time 1.5-6 hrs
[12] = tested on: Erythrocyte; assay: Hemolytic activity in human RBC at 512 ug/ml incubated for 2 hrs by microplate reader analysis; format: toxicity, cell-based; conditions: dose 512 µg/ml
[13] = tested on: Erythrocyte; assay: Hemolytic activity in human RBC assessed as morphological changes at 512 ug/ml incubated for 2 hrs by microscopic analysis; format: toxicity, cell-based; conditions: dose 512 µg/ml
[14] = tested on: Cell membrane; assay: Disruption of membrane integrity in Escherichia coli ATCC 25922 assessed as membrane damage by measuring PI fluorescence at 1 to 8 times MIC incubated for 8 hrs by PI staining based analysis; format: subcellular
[15] = tested on: Cell membrane; assay: Disruption of membrane integrity in Enterococcus faecalis assessed as membrane damage by measuring PI fluorescence at 1 to 8 times MIC incubated for 8 hrs by PI staining based analysis; format: subcellular
[16] = tested on: Cell membrane; assay: Disruption of membrane integrity in Enterococcus faecalis assessed as membrane damage by measuring PI-DNA complex formation at 2 times MIC incubated for 20 to 200 mins by PI staining based analysis; conditions: time 20-200 min, TDE = time-dependent effect
[17] = tested on: Cell membrane; assay: Disruption of membrane integrity in Enterococcus faecalis assessed as membrane damage by measuring increase in red fluorescence at 2 to 8 times MIC incubated for 8 hrs by PI staining based fluorescence microscopic analysis; format: subcellular
[18] = tested on: Cell membrane; assay: Induction of membrane depolarization in Enterococcus faecalis assessed as increase in fluorescence intensity at 1 times MIC measured after 10 to 60 mins by diSC35 dye based fluorescence assay; format: subcellular; conditions: time 10-60 min, TDE = time-dependent effect
[19] = tested on: Cell membrane; assay: Induction of membrane damage in Enterococcus faecalis assessed as increase in protein leakage measured after 6 hrs by Bradford assay; format: subcellular; conditions: DDE = dose-dependent effect
[20] = tested on: Enterococcus faecalis; assay: Antibiofilm activity against Enterococcus faecalis assessed as reduction in biofilm formation at MIC measured after 24 hrs by crystal violet staining based analysis relative to control; format: functional; set-up: scale not given: the % may be the effect or the level left
[21] = tested on: Enterococcus faecalis; assay: Antibiofilm activity against Enterococcus faecalis assessed as reduction in biofilm formation at upto 8 times MIC measured after 24 hrs by crystal violet staining based analysis relative to control; format: functional; set-up: scale not given: the % may be the effect or the level left
[22] = tested on: Enterococcus faecalis; assay: Induction of intracellular ROS production in Enterococcus faecalis assessed as fold increase in intracellular ROS level at 0.25 ug/ml incubated for 6 hrs by DCFH-DA assay relative to control; format: functional; conditions: dose 0.25 µg/ml
[23] = tested on: Enterococcus faecalis; assay: Induction of intracellular ROS production in Enterococcus faecalis assessed as fold increase in intracellular ROS level at 2 ug/ml incubated for 6 hrs by DCFH-DA assay relative to control; format: functional; conditions: dose 2 µg/ml
[24] = tested on: Calf thymus DNA; assay: Binding affinity to calf thymus DNA assessed as compound-DNA complex formation by measuring hypochromic shift by UV-visible absorption spectrophotometric method; format: nucleic-acid assay; conditions: Bos taurus
[25] = tested on: Calf thymus DNA; assay: Binding affinity to calf thymus DNA assessed as DNA intercalation by neutral red dye uptake method; format: nucleic-acid assay; conditions: Bos taurus

Molecule `CCOP(=O)(OCC)C(Nc1ccc(S(=O)(=O)Nc2ncccn2)cc1)c1cc(O)c2c(c1)C(=O)c1cccc(O)c1C2=O` (stereo not given) has an MIC [1] of 0.5 µg/mL (≈ 0.783 µM), an MIC [2] of 0.25 µg/mL (≈ 0.391 µM) and an MIC [3] of 8 µg/mL (≈ 12.5 µM). It also gave an MIC [4] of 128 µg/mL (≈ 200 µM), an MIC [5] of 2 µg/mL (≈ 3.13 µM) and an MIC [6] of 2 µg/mL (≈ 3.13 µM). The MIC [7] was 0.25 µg/mL (≈ 0.391 µM), the MIC [8] was 8 µg/mL (≈ 12.5 µM) and the MIC [9] was 0.25 µg/mL (≈ 0.391 µM). For the same molecule, the MIC [10] was 16 µg/mL (≈ 25.1 µM), the Activity [11] was 3 log10CFU/ml and the Activity [12] was “Non-Toxic”. For the same molecule, the Activity [13] was “Non-Toxic”, the Activity [14] was “Active” and the Activity [15] was “Active”. For the same molecule, the Activity [16] was “Tde”, the Activity [17] was “Active” and the Activity [18] was “Tde”. The Activity [19] was “Dde”, the Activity [20] was 30% and the Activity [21] was “<=79%”. The “fold change (FC)” value [22] was 1.2, the “fold change (FC)” value [23] was 2.4 and the Activity [24] was “Active”. The Activity [25] was “Active”.
